Data as given in ChEMBL document CHEMBL4387778, “Dual functional cholinesterase and PDE4D inhibitors for the treatment of Alzheimer's disease: Design, synthesis and evaluation of tacrine-pyrazolo[3,4-b]pyridine hybrids” (Bioorg Med Chem Lett, 2019).

Legend:
Acetylcholinesterase = Acetylcholinesterase (Electrophorus electricus, UniProt O42275); assay: Inhibition of electric eel AchE using acetylthiocholine as substrate by Ellman's method
Cholinesterase = Cholinesterase (Equus caballus, UniProt P81908); assay: Inhibition of equine serum BuchE using butyrylthiocholine as substrate by Ellman's method
[1] = target: 3',5'-cyclic-AMP phosphodiesterase 4D (Homo sapiens, UniProt Q08499)
Sequence of 3',5'-cyclic-AMP phosphodiesterase 4D (Q08499 whole entry): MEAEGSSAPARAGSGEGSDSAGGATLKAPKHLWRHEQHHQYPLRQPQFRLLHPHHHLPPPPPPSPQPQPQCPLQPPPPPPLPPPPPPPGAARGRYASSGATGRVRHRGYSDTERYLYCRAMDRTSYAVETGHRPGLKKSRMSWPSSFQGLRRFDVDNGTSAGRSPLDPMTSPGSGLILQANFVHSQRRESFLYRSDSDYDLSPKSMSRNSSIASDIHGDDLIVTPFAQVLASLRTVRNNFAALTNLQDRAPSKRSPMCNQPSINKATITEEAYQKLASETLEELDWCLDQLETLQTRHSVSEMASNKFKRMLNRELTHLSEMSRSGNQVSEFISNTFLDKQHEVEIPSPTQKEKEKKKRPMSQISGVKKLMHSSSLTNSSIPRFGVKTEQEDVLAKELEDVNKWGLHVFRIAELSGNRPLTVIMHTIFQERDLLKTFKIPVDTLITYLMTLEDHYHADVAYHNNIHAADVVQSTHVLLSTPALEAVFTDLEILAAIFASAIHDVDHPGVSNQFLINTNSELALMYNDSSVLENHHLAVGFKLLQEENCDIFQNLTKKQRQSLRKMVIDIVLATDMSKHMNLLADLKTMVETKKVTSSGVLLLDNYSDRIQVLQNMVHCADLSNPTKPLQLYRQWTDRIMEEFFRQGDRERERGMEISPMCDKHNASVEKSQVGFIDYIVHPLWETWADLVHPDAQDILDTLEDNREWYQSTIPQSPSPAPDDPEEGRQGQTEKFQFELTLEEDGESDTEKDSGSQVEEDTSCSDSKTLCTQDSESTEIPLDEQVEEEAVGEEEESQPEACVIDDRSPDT
Description: Inhibition of recombinant human PDE4D2 catalytic domain (86 to 413 residues) expressed in Escherichia coli BL21 codonplus cells using [3H]cAMP as substrate preincubated for 15 mins followed by substrate addition by liquid scintillation counting method

Sequence of Acetylcholinesterase (O42275 whole entry): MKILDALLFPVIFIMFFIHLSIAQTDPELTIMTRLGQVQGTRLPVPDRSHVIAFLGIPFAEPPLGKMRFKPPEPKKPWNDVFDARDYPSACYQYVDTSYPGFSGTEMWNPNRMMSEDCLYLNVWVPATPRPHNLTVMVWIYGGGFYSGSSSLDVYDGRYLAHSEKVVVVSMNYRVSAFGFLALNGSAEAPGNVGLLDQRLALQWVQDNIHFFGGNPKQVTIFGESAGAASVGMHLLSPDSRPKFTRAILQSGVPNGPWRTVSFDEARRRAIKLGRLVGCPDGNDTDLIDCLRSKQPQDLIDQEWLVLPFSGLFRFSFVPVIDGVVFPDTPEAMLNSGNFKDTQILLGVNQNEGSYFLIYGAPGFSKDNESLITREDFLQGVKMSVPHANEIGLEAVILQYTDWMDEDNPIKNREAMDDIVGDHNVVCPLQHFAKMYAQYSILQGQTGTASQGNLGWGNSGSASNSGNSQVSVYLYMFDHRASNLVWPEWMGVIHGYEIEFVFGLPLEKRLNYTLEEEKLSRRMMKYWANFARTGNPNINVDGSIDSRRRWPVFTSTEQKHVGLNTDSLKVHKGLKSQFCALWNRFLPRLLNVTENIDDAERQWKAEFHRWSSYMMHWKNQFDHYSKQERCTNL
Sequence of Cholinesterase (P81908 whole entry): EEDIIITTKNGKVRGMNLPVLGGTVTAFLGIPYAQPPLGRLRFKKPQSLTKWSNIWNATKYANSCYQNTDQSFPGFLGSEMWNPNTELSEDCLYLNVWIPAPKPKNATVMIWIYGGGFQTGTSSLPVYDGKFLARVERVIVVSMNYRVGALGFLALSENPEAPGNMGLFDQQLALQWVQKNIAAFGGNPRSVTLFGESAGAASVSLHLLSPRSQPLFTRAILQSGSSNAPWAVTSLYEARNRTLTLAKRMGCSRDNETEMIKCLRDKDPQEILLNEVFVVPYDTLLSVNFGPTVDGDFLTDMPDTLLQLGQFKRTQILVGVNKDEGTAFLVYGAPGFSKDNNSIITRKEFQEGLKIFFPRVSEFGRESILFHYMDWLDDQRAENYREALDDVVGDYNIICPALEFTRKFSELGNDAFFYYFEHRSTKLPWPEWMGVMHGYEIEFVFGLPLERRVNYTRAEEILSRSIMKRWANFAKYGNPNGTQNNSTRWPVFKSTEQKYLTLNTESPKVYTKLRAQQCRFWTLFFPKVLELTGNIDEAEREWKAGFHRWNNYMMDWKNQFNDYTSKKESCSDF

| SMILES | IC50 (Acetylcholinesterase) [nM] | IC50 (Cholinesterase) [nM] | IC50 [1] [nM] |
| --- | --- | --- | --- |
| CCn1ncc2c(NC3CCCCC3)c(C(=O)NCCCCCCCCNc3c4c(nc5cc(Cl)ccc35)CCCC4)cnc21 | 812 | 314 | 1080 |
| CCn1ncc2c(NC3CCCCC3)c(C(=O)NCCCCCCCCNc3c4c(nc5ccccc35)CCCC4)cnc21 | 392 | 320 | 1310 |
| CCn1ncc2c(NC3CCCCC3)c(C(=O)NCCCCNc3c4c(nc5cc(Cl)ccc35)CCCC4)cnc21 | 335 | 1280 | 87 |
| CCn1ncc2c(NC3CCCCC3)c(C(=O)NCCCCNc3c4c(nc5ccccc35)CCCC4)cnc21 | 333 | 889 | 108 |
| CCn1ncc2c(NC3CCCCC3)c(C(=O)NCCCCCCCNc3c4c(nc5ccc(Cl)cc35)CCCC4)cnc21 | 391 | 245 | 934 |
| CCn1ncc2c(NC3CCCCC3)c(C(=O)NCCNc3c4c(nc5ccccc35)CCCC4)cnc21 | 243 | 891 | 41 |
| CCn1ncc2c(NC3CCCCC3)c(C(=O)NCCCCCCCNc3c4c(nc5ccccc35)CCCC4)cnc21 | 316 | 324 | 1070 |
| CCn1ncc2c(NC3CCCCC3)c(C(=O)NCCCCCCNc3c4c(nc5cc(Cl)ccc35)CCCC4)cnc21 | 125 | 449 | 271 |
| CCn1ncc2c(NC3CCCCC3)c(C(=O)NCCCCCNc3c4c(nc5ccccc35)CCCC4)cnc21 | 358 | 264 | 477 |
| CCn1ncc2c(NC3CCCCC3)c(C(=O)NCCNc3c4c(nc5cc(Cl)ccc35)CCCC4)cnc21 | 412 | 713 | 25 |
| CCn1ncc2c(NC3CCCCC3)c(C(=O)NCCCCCCNc3c4c(nc5ccccc35)CCCC4)cnc21 | 149 | 332 | 501 |
| CCn1ncc2c(NC3CCCCC3)c(C(=O)NCCCCCNc3c4c(nc5ccc(Cl)cc35)CCCC4)cnc21 | 306 | 434 | 308 |
